Laboratory results from the pKa sets of Baltruschat and Czodrowski (2020).
Where a SMILES comes first, the peptide text is derived from it.

Settings: acidic group

Row | Compound | pKa
1 | Cc1cc(C[NH+](C)C)c(O)c(C[NH+](C)C)c1 | 6.45
2 | CCOC(=O)N1CCc2noc(O)c2CC1 | 4.7
3 | OB(O)Cc1ccccc1 | 9.12
4 | O=[Se](O)c1ccccc1 | 4.79
5 | Brc1ccc(-c2nnn[nH]2)cc1 | 3.73
6 | CC(C)C1C(=O)c2ccccc2C1=O | 7.4
7 | N#CC(C#N)=NNc1ccccc1[N+](=O)[O-] | 5.8
8 | Cc1ccc(O)c2ncccc12 | 9.93
9 | Nc1nc2nc[n-]c2c(N)[n+]1[O-] | 12
10 | COc1ccccc1/C=C/C=N\O | 11.3
11 | C[C@H]([NH3+])C(=O)O | 2.42
12 | Nc1n[nH]c(N)c1/N=N/c1ccccc1O | 8.22
13 | O=c1[nH]c2ccccc2nc1[O-] | 12.3
14 | CCCC[C@H]([NH3+])C(=O)O | 2.39
15 | Cc1cc(C)c2c(O)c(CC(=O)O)oc2c1 | 4.75
16 | Oc1ccc(O)[nH+]n1 | -2.2
17 | Nc1nc2c(ncn2[C@H]2O[C@@H](CO)[C@H](O)[C@@H]2O)c(O)[nH+]1 | 1.9
18 | C[NH+](C)Cc1c(O)c(O)c(O)c(C[NH+](C)C)c1C(=O)[O-] | 6.95
19 | Sc1cccc[nH+]1 | -1.22
20 | O=C(O)C1=C(CO)CCC1 | 4.54
21 | CC/C=C/CC(=O)O | 4.52
22 | CC(C)CC(N)C(=O)NC(CC(N)=O)C(=O)O (stereo not drawn) (H-Leu-Asn-OH; configuration not given here) | 8.23
23 | CC(C)CCC(=O)O | 4.84
24 | CC(=O)CCC(=O)O | 4.63
25 | [NH3+][C@@H](CCCCN1C(=O)C[C@H]([NH3+])C1=O)C(=O)O | 2.5
26 | CC(C)[C@H]1C[NH2+][C@H](C(=O)O)[C@H]1CC(=O)O | 2.12
27 | Nc1ncnc2[nH]cnc12 | 9.86

Row | Compound | pKa
28 | [O-]c1nc(O)nn1-c1ccccc1 | 12.2
29 | Cc1ccc(C(=O)O)c(I)c1 | 3.2
30 | CC(C)[C@H]([NH3+])C(=O)O | 2.32
31 | Oc1cc(Cl)cc(Cl)c1 | 8.07
32 | c1c[nH]cn1 | 14.5
33 | Clc1nnn[nH]1 | 2.07
34 | CC(=O)CC(=S)Nc1cccc(C)c1 | 7.56
35 | On1nnc2cc(Cl)ccc21 | 4.18
36 | Cc1cccc(NC=S)c1 | 11.6
37 | [O-]c1ccc(/C=N/O)cc1 | 12
38 | CCNc1ncnc2[nH]ncc12 | 10.9
39 | C[N+](C)(C)c1ccccc1O | 7.46
40 | Cc1cc(C=O)c(O)c(C=O)c1 | 6.2
41 | C[C@@H]1C[C@@H]([C@H](O)CC2CC(=O)NC(=O)C2)C(=O)[C@@H](C)C1 | 11.2
42 | CC(=O)N(C)CC(=O)O | 3.16
43 | CN(C)c1ncc2[nH]cnc2n1 | 10.2
44 | Nc1ccc([N+](=O)[O-])c(B(O)O)c1 | 10
45 | O=CC(=O)O | 1.26
46 | NS(=O)(=O)C(F)(F)I | 6.79
47 | CN1C(=O)C2(CCCCC2)NC1=S | 11.2
48 | O=C(O)[C@H]1CCCC[C@@H]1O | 4.68
49 | C/C=C\C=C/C(=O)O | 4.51
50 | COc1ccc(O)c(C)c1 | 10.2
51 | CN(C)C(=S)SCC(=O)O | 3.34
52 | Cc1cc(=O)n2ncnc2[nH]1 | 6.19
53 | CC(C)([NH3+])C(=O)O | 2.39
54 | Cc1n[nH]c2c1c(=O)n(C)c(=O)n2C | 9.83

More lines, now with the values ahead:

Row | pKa | Compound
55 | 6 | Cc1cnc(NS(=O)(=O)c2ccc(N)cc2)nc1C
56 | 8.45 | COc1c(O)ccc2c1C[N+]1(C)CCc3cc4c(cc3[C@@H]1C2)OCO4 (some centres not stated)
57 | 9.84 | Cc1ccc(S(=O)(=O)NCCC(=[NH2+])N(C)C)cc1
58 | 3.76 | CC(C)(C)OC(=O)NS(=O)(=O)c1ccc(S(C)(=O)=O)cc1
59 | 9.81 | O=[N+]([O-])c1ccc(C(=S)Nc2ccccc2)cc1
60 | -6.72 | O=S(=O)(O)c1ccc(Br)cc1
61 | 7.15 | C[n+]1cccc2cc(O)ccc21
62 | 10.7 | COc1ccc(/C(=C\C(=O)c2ccc(S(=O)(=O)[O-])cc2)CC(=O)c2ccc(S(=O)(=O)[O-])cc2)cc1S(=O)(=O)[O-]
63 | 3.74 | O=C(O)c1cccc(-c2nnn[nH]2)c1
64 | 6.5 | COc1cc2ccc(=O)oc2cc1O
65 | 3.42 | CC(C)(C)c1ccc(C(=O)/C=C/C(=O)O)cc1
66 | 6.84 | O=c1oc2cc(O)ccc2cc1-c1nc2ccccc2o1
67 | 11.7 | Cc1ccc(C(=O)C[n+]2cccc3c4ccccc4ccc32)cc1
68 | 1.71 | O=C(O)c1cc[nH+]cc1
69 | 6.95 | Nc1ccc(S(=O)(=O)Nc2nccs2)c(Cl)c1
70 | 10.9 | c1ccc(CNc2ncnc3[nH]ncc23)cc1
71 | 4.45 | C=CCOc1ccc(C(=O)O)cc1
72 | 8.34 | CCCCOC(=O)c1ccc(O)cc1
73 | 13.3 | O=C(Cc1ccccn1)c1ccccc1
74 | 3.26 | CC(=O)c1c(C(=O)O)cccc1[N+](=O)[O-]
75 | 7.34 | CCOC(=O)COc1ccc(C(=O)c2ccc(O)c(C[NH3+])c2)cc1
76 | 9.8 | C[n+]1c2ccccc2cc2cc(N)ccc21
77 | 6.16 | CC(=O)c1cccc(=O)c(O)c1
78 | 4.54 | CCOc1ccc(C(=O)O)c(C)c1
79 | 7.7 | Oc1n[nH]c(-c2ccccc2)c1Cc1ccccc1
80 | 8.2 | O=S(=O)(Nc1ccccn1)c1ccccc1

Same assay, conditions: basic group

Row | Compound | pKa
81 | c1ccc(Nc2ncnc3[nH]ncc23)cc1 | 3.92
82 | Cc1cc([S-])[nH+]cn1 | 1.8
83 | Cc1ccc(N)cc1C | 4.94
84 | NCc1ccc([N+](=O)[O-])cc1 | 8.5
85 | C=CC(C)(CC)N(C)C(C)C (configuration not stated) | 11.3

Continued, values first:

Row | pKa | Compound
86 | 9.75 | O=C([O-])C(CO)NCc1cc([N+](=O)[O-])ccc1[O-] (configuration not stated)
87 | 1.5 | CCOC(=O)c1cc(-c2ccccc2)nnc1NCC[NH+]1CCOCC1
